Source: ChEMBL document CHEMBL4837239, “Identification of Thieno[3,2-d]pyrimidine Derivatives as Dual Inhibitors of Focal Adhesion Kinase and FMS-like Tyrosine Kinase 3” (J Med Chem, 2021)
The source made the active and inactive calls. No cut-off for these calls is given here.

Experiments:
[1] = Metabolic stability in human liver microsomes assessed as compound remaining at 1 uM measured after 1 hr; type: ADME, Microsome; settings: read-out: Stabilty
CYP1A2 = target: T1, CYP1A2 (Homo sapiens, UniProt P05177); assay: Inhibition of CYP1A2 (unknown origin) at 10 uM relative to control; type: ADME
T1 sequence (P05177 whole entry): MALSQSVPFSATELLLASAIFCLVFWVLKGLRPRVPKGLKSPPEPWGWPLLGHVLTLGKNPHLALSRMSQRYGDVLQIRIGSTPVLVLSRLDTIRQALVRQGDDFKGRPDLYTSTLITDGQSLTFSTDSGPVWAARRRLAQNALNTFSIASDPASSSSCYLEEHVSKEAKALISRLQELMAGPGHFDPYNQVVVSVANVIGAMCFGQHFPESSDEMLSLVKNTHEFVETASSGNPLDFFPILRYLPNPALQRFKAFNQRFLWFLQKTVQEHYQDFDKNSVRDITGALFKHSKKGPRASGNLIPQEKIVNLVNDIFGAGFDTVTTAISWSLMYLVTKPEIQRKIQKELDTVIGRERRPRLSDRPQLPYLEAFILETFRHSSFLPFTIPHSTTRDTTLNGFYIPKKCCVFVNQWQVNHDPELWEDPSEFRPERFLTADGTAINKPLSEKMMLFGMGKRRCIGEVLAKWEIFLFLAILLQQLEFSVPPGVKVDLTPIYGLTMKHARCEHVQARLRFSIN

[2] = Inhibition of FLT3 D835Y (unknown origin); parameters: species or system Homo sapiens
[3] = target: Tyrosine-protein kinase Fes/Fps (Homo sapiens, UniProt P07332); assay: Inhibition of Fes (unknown origin)
Ephrin type-B receptor 1 = Ephrin type-B receptor 1 (Homo sapiens, UniProt P54762); assay: Inhibition of EphB1 (unknown origin)
[4] = target: Epithelial discoidin domain-containing receptor 1 (Homo sapiens, UniProt Q08345); assay: Inhibition of DDR1 (unknown origin) at 0.1 uM
[5] = target: Tyrosine-protein kinase Lck (Homo sapiens, UniProt P06239); assay: Inhibition of Lck (unknown origin) at 0.1 uM
BaF3 [6] = assay: Antiproliferative activity against mouse Ba/F3 cells harbouring FLT3 ITD F691I mutant assessed as growth inhibition measured after 72 hrs by CellTiter-Glo assay; type: functional; settings: Mus musculus, BaF3
Focal adhesion kinase 1 [7] = target: T2, Focal adhesion kinase 1 (Homo sapiens, UniProt Q05397); assay: Inhibition of FAK autophosphorylation at Y576 in human HCT-116 cells at 5 uM incubated for 24 hrs by Western blot analysis; type: cell-based
Focal adhesion kinase 1 [8] = target: T2, Focal adhesion kinase 1; assay: Inhibition of FAK autophosphorylation at Y925 in human HCT-116 cells at 5 uM incubated for 24 hrs by Western blot analysis; type: cell-based
HCT-116 [9] = assay: Induction of apoptosis in human HCT-116 cells assessed as cleaved caspase-3 at 0.1 to 10 uM incubated for 24 hrs by Western blot analysis; type: functional, cell-based; settings: dose 0.1-10 µM
HCT-116 [10] = assay: Growth inhibition of anchorage-Independent human HCT-116 cells assessed as decrease in number of colonies incubated for 72 hrs by MTT assay; type: functional, cell-based; settings: dose 1-10 µM
MDA-MB-231 [11] = assay: Antimigratory activity in human MDA-MB-231 cells assessed as suppression of migration at 1 uM measured after 12 hrs by scratch wound healing assay; type: functional
MDA-MB-231 [12] = assay: Antiinvasive activity in human MDA-MB-231 cells assessed as suppression of invasion measured after 12 hrs by trans well experiment; type: functional; settings: dose 0.5-1 µM, at 0.5 to 1 µM
MDA-MB-231 [13] = assay: Disruption of focal adhesion of human MDA-MB-231 cells assessed as decrease in F-actin measured after 3 hrs by Alexa Fluor 488-conjugated Ab based fluorescence analysis; type: functional; parameters: scale not given: the % may be the effect or the level left; settings: dose 1-10 µM, at 1 to 10 µM
MDA-MB-231 [14] = assay: Antimetastatic activity against human MDA-MB-231 cells expressing firefly luciferase xenografted NSG orthotopic mouse model assessed as reduction in tumor weight at 70 mg/kg, po once daily measured for 2 weeks; type: functional, organism-based
[15] = Toxicity in NSG orthotopic mouse xenografted with human MDA-MB-231 cells assessed as adverse effect at 40 to 70 mg/kg, po once daily measured for 2 weeks; type: organism-based; settings: in vivo, 336 h, dose 40-70 mg/kg
BaF3 [16] = assay: Inhibition of FLT3-ITD/[…] mutant (unknown origin) expressed in mouse BaF3 cells assessed as decrease in autophosphorylation at 1 nM by Western blot analysis; type: cell-based; settings: Homo sapiens
[17] = test system: T3, Receptor-type tyrosine-protein kinase FLT3 (Homo sapiens), P36888 [D835Y]; assay: Inhibition of FLT3-D835Y mutant (unknown origin) expressed in mouse BaF3 cells assessed as decrease in ERK phosphorylation at 1 nM by Western blot analysis; type: cell-based
T3 sequence (whole entry): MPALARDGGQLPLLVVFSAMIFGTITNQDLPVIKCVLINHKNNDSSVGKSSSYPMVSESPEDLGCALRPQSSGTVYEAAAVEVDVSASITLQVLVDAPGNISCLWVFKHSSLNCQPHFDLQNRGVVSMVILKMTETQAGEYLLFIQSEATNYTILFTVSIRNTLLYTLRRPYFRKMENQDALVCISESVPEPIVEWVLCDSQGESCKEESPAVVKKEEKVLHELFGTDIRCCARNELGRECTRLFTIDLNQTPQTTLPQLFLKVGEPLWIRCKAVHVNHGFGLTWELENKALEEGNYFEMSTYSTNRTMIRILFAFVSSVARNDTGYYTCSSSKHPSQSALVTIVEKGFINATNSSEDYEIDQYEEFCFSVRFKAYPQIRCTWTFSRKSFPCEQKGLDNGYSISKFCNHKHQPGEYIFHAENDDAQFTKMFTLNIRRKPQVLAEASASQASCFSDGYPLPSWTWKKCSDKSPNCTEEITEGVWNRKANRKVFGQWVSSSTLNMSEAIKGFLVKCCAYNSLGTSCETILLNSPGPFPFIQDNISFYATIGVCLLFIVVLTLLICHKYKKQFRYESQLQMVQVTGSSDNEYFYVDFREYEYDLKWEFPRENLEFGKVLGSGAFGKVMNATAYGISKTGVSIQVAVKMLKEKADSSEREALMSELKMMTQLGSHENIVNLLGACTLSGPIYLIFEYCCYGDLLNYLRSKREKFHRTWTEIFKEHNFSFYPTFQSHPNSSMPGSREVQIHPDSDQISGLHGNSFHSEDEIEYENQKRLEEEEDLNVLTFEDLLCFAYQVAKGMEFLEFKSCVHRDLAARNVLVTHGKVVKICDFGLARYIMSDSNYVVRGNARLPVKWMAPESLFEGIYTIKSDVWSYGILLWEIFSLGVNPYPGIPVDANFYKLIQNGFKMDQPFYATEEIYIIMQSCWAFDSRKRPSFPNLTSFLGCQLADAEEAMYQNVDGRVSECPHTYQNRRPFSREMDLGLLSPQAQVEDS

MV4-11 [18] = assay: In vivo antitumor activity against human MV4-11 cells xenografted in mouse assessed as tumor growth inhibition at 50 mg/kg, po; type: functional; settings: MV4-11, po
MV4-11 [19] = assay: In vivo antitumor activity against human MV4-11 cells xenografted in mouse assessed as tumor weight at 50 mg/kg, po relative to control; type: functional, organism-based

T2 sequence (Q05397 2-1052 limits assumed): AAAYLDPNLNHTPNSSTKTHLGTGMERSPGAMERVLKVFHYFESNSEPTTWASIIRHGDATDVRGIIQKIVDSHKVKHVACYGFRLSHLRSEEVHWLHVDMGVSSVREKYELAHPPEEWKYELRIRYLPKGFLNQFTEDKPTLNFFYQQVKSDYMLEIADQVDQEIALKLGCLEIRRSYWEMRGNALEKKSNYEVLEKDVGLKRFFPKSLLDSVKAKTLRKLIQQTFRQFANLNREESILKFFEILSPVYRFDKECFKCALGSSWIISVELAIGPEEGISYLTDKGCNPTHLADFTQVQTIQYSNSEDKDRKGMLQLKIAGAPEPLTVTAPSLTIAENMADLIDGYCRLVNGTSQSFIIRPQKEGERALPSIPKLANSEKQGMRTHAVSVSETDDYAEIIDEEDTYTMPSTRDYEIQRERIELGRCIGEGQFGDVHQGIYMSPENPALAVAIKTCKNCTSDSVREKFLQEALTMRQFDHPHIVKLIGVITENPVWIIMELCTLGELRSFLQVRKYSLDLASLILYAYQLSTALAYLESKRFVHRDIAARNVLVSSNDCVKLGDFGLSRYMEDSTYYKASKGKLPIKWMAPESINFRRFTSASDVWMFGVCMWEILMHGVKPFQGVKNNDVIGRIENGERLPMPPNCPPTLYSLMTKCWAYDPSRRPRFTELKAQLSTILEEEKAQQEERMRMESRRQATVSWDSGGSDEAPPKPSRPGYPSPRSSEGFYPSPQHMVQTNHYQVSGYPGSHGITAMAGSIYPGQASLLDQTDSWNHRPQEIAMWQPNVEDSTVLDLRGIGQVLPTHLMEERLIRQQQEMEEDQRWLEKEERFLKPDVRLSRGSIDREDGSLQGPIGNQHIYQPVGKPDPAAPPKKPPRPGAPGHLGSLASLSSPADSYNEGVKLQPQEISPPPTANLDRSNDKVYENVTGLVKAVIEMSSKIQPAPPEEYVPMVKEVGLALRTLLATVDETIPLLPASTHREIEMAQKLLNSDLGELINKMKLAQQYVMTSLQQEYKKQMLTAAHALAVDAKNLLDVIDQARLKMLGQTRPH
Chain of Tyrosine-protein kinase Lck (P06239 2-509 limits assumed): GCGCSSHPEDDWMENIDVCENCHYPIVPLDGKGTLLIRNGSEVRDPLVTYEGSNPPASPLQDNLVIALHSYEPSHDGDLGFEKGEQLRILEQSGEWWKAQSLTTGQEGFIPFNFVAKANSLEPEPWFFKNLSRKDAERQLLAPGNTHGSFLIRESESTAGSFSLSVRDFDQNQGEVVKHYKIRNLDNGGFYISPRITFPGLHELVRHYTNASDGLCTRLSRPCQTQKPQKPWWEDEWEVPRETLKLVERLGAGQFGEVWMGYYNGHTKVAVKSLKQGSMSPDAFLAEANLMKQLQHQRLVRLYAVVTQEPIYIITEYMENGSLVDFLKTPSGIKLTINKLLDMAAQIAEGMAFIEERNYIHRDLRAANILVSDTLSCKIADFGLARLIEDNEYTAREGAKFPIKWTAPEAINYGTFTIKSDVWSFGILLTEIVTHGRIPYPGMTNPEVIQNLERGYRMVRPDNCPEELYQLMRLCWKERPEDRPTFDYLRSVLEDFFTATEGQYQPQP
Chain of Epithelial discoidin domain-containing receptor 1 (Q08345 whole entry, the tested form may be a part): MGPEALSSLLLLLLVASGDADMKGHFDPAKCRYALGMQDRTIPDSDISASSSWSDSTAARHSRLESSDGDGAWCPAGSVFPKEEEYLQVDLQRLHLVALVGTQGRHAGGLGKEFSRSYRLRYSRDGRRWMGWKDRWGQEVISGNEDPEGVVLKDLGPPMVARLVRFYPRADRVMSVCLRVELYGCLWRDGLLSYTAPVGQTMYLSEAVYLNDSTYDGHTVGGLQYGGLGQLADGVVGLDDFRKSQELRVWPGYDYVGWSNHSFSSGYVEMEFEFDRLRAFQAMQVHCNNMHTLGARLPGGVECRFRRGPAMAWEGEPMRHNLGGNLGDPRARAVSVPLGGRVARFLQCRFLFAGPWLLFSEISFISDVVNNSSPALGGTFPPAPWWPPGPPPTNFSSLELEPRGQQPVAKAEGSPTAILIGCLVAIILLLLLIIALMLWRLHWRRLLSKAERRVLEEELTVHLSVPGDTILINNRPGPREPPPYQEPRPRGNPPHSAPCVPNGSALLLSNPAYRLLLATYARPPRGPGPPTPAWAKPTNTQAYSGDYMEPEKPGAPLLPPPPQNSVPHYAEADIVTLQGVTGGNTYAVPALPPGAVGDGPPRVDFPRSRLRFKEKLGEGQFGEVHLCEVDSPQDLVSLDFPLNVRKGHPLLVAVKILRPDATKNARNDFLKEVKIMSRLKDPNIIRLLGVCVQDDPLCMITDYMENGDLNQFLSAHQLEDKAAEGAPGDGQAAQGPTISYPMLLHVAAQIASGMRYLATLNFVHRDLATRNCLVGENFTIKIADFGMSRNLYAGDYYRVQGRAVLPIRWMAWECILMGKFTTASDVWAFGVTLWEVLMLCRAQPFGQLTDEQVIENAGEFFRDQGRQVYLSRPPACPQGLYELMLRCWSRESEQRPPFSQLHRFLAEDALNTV
Chain of Ephrin type-B receptor 1 (P54762 whole entry, the tested form may be a part): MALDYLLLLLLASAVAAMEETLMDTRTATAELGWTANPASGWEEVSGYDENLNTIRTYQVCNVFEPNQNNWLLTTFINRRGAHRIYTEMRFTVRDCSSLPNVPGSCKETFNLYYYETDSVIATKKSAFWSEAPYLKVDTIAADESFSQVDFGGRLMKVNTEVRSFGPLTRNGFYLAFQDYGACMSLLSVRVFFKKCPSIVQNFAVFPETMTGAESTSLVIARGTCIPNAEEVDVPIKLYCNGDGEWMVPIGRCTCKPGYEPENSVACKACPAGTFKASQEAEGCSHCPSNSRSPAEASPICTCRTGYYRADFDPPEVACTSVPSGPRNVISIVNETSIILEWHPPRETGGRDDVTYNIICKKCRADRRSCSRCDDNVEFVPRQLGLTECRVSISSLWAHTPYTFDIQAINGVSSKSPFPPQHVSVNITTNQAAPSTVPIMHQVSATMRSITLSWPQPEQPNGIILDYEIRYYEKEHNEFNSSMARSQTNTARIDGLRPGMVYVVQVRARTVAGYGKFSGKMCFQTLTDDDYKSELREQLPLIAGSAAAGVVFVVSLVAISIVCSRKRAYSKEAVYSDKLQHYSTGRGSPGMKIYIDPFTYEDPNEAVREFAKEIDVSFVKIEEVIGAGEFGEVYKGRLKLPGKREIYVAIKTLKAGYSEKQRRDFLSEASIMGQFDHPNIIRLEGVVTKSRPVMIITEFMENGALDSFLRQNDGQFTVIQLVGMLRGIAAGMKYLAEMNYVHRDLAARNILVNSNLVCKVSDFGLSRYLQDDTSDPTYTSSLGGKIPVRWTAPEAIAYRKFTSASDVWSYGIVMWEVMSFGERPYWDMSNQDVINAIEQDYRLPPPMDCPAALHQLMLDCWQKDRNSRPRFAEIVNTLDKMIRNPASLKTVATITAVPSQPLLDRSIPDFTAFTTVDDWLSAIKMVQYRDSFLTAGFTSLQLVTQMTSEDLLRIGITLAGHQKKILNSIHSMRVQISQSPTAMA
Chain of Tyrosine-protein kinase Fes/Fps (P07332 whole entry): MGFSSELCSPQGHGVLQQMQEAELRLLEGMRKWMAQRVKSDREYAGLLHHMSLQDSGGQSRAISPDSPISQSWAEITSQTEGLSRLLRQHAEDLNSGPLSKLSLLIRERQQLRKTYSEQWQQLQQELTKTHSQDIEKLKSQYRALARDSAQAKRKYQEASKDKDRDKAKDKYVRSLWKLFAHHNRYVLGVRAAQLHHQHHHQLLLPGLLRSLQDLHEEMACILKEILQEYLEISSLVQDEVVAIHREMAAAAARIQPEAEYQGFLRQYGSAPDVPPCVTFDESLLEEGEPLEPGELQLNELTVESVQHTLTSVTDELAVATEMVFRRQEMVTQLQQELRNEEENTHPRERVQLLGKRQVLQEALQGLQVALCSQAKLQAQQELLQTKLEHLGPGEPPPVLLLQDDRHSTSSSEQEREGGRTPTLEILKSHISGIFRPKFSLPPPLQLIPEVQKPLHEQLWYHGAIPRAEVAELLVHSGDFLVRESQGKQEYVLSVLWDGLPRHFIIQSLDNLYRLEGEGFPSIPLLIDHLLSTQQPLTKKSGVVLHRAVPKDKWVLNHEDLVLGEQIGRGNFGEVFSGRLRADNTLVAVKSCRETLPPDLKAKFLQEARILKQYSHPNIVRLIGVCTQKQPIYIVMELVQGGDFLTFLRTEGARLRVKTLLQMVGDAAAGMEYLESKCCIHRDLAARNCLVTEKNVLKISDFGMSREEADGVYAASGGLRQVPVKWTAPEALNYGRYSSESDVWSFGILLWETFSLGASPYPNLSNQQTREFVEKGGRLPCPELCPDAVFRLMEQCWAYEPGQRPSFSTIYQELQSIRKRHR

With `CCN1CCN(c2ccc(Nc3ncc4scc(-c5cccc(NS(C)(=O)=O)c5)c4n3)cc2)CC1` the remaining at 1 h, 1 µM [1] was 80.2%, the inhibition at 10 µM (CYP1A2) was 89.2% and the IC50 [2] was < 0.5 nM. For the same molecule, the IC50 [3] was 4.9 nM, the IC50 (Ephrin type-B receptor 1) was 29.8 nM and the inhibition [4] was 97%. For the same molecule, the inhibition [5] was 93.9%, the GI50 (BaF3 [6]) was 114 nM and the inhibition (Focal adhesion kinase 1 [7]) was “Active”. For the same molecule, the inhibition (Focal adhesion kinase 1 [8]) was “Active”, the Activity (HCT-116 [9]) was “Active” and the “growth inhibition (GI)” value (HCT-116 [10]) was “Active”. The inhibition at 1 µM (MDA-MB-231 [11]) was 50%, the “inhibition (INH)” value (MDA-MB-231 [12]) was 50% and the Activity (MDA-MB-231 [13]) was 50%. For the same molecule, the Activity (MDA-MB-231 [14]) was “Active”, the Activity [15] was “Non-Toxic” and the inhibition (BaF3 [16]) was “Active”. The inhibition [17] was “Active”, the inhibition in vivo at 50 mg/kg (MV4-11 [18]) was 96% and the Activity (MV4-11 [19]) was “Active”.
